Test results: patent publication US10059721B2, “Substituted thieno[3,2-b]pyrazines for inhibiting cancer cell proliferation and inducing cancer cell apoptosis” (DONGGUK UNIVERSITY INDUSTRY-ACADEMIC COOPERATION FOUNDATION, priority 2014, dated 2018)

Experiments:
Type in all cases: cell-based
A549 = test: Cell growth inhibition experiment (SRB), A549; conditions: Homo sapiens, incubated for 96 hours, read-out: IC50 (μM) of cancer cell lines A549
Protocol: (§1) The 4-(aryl)-N-(2-alkoxythieno[3,2-b]pyrazin-3-yl)-piperazin-1-carboxamide derivative compounds synthesized according to Examples 1 to 27 of the present invention were treated with various human tissue-derived cancer cell lines cultured according to Experimental Example 1, and thus the inhibitory effect of the growth of human cancer cells was confirmed. The cell growth inhibition experiment was conducted using sulforhodamine B (SRB) technique (Skehan et al., J. National Cancer Institute, 1990, 82: 1107-1112). Specifically, each cell line was seeded in a 96-well plate at a density of 2 to 3×10^3 cells/well, cultured overnight, and then treated with the 4-(aryl)-N-(2-alkoxythieno[3,2-b]pyrazin-3-yl)-piperazin-1-carboxamide derivative compounds of the present invention. The experiment was repeated 3 times for each compound. Cells treated with each compound were additionally incubated for 96 hours, fixed with 10% trichloroacetic acid (TCA), and then left at 4° C. for 1 hour. The resultant was washed 3 times with distilled water. Thereafter, each cell was treated with 0.4% sulforhodamine B dissolved in 1% acetic acid, stained for 30 minutes, and then washed 4 times with 1% acetic acid. The resultant was dried in the air. After shaking the resultant in Tris solution (10 mM) for 5 minutes, the absorbance was measured at 530 nm using a Benchmark Plus Microplate reader (Bio-Rad Laboratories, Hercules, Calif.).
(§2) In order to convert the OD530 value to the number of viable cells per each well, the measured OD530 value was compared to the standard OD530-vs.-cell number curve of each cell line. The percent survival was calculated using the following formula: % survival=Nlive cells(test)/Nlive cells(control)×100
(§3) IC50 values were calculated by nonlinear regression analysis.

[1] = test system: UMRC2 (kidney cancer) cell line; test: Cell growth inhibition experiment (SRB), UMRC2; conditions: Homo sapiens, incubated for 96 hours, read-out: IC50 (μM) of cancer cell lines UMRC2
Protocol: (§4) The cell lines below were used in order to confirm the efficacy of the compounds synthesized in Examples 1 to 27. Human PANC-1 (pancreatic cancer) and MDA-MB-231 (breast cancer) cell lines were obtained from American Type Culture Collection (ATCC; Manassas, Va.); and HN31 (head and neck cancer) and UMRC2 (kidney cancer) cell lines were secured from the United States National Institutes of Health (Bethesda, Md.). The MDA-MB-231, UMRC2, HN31, and PANC-1 cell lines were cultured in Dulbecco modified Eagle medium (DMEM) containing FBS (10%), HEPES (10 mM), penicillin (100 U/mL), and streptomycin (100 μg/mL). All cell lines were cultured in an incubator (37° C., 5% CO2).
as §1, §2, §3

SK-OV-3 = test: Cell growth inhibition experiment (SRB), SK-OV-3; conditions: Homo sapiens, incubated for 96 hours, read-out: IC50 (μM) of cancer cell lines SK-OV-3
Protocol: as §1, §2, §3

HEK293 = test: Cell growth inhibition experiment (SRB), HEK293; conditions: Homo sapiens, incubated for 96 hours, read-out: IC50 (μM) of cancer cell lines HEK293
Protocol: as §1, §2, §3

[2] = test system: PANC-1 (pancreatic cancer) cell line; test: Cell growth inhibition experiment (SRB), PANC-1; conditions: Homo sapiens, incubated for 96 hours, read-out: IC50 (μM) of cancer cell lines PANC-1
Protocol: as §4, §1, §2, §3

HT29 = test: Cell growth inhibition experiment (SRB), HT29; conditions: Homo sapiens, HT-29, incubated for 96 hours, read-out: IC50 (μM) of cancer cell lines HT29
Protocol: as §1, §2, §3

HUVEC = test: Cell growth inhibition experiment (SRB), HUVEC; conditions: Homo sapiens, incubated for 96 hours, read-out: IC50 (μM) of cancer cell lines HUVEC
Protocol: as §1, §2, §3

[3] = test system: HN31 (head and neck cancer) cell line; test: Cell growth inhibition experiment (SRB), HN31; conditions: Homo sapiens, incubated for 96 hours, read-out: IC50 (μM) of cancer cell lines HN31
Protocol: as §4, §1, §2, §3

[4] = test system: MDA-MB-231 (breast cancer) cell line; test: Cell growth inhibition experiment (SRB), MDA-MB-231; conditions: Homo sapiens, incubated for 96 hours, read-out: IC50 (μM) of cancer cell lines MDA-MB-231
Protocol: as §4, §1, §2, §3

| Structure (SMILES) | IC50 (A549) [µM] | IC50 [1] [µM] | IC50 (SK-OV-3) [µM] | IC50 [2] [µM] | IC50 (HT29) [µM] | IC50 [3] [µM] | IC50 [4] [µM] | IC50 (HEK293) [µM] | IC50 (HUVEC) [µM] |
| --- | --- | --- | --- | --- | --- | --- | --- | --- | --- |
| COc1cc(OC)cc(N2CCN(C(=O)Nc3nc4sc(Cl)cc4nc3OC)CC2)c1 [Example 1, N-(6-chloro-2-methoxythieno[3,2-b]pyrazin-3-yl)-4-(3,5-dimethoxyphenyl)piperazin-1-carboxamide] | 2.13 | 0.03 | 0.27 | 0.53 | 0.31 | 0.27 | 0.02 | 0.63 | 0.12 |
| COc1nc2cc(Cl)sc2nc1NC(=O)N1CCN(c2cc(C)cc(C)c2)CC1 [Example 2, N-(6-chloro-2-methoxythieno[3,2-b]pyrazin-3-yl)-4-(3,5-dimethylphenyl)piperazin-1-carboxamide] | < 2.5 | 0.08 | 0.82 | 0.95 | 0.62 | 0.99 | 0.06 | 0.93 | 0.91 |
| CCOc1nc2cc(Cl)sc2nc1NC(=O)N1CCN(c2cc(OC)cc(OC)c2)CC1 [Example 4, N-(6-chloro-2-ethoxythieno[3,2-b]pyrazin-3-yl)-4-(3,5-dimethoxyphenyl)piperazin-1-carboxamide] | < 2.5 | 0.54 | < 2.5 | 1.28 | < 2.5 | 1.54 | 0.63 | < 2.5 | 2.25 |
| CCOc1nc2cc(Cl)sc2nc1NC(=O)N1CCN(c2cc(C)cc(C)c2)CC1 [Example 5, N-(6-chloro-2-ethoxythieno[3,2-b]pyrazin-3-yl)-4-(3,5-dimethylphenyl)piperazin-1-carboxamide] | < 2.5 | 1.72 | < 2.5 | 2.32 | < 2.5 | 2.35 | 1.22 | < 2.5 | < 2.5 |
| CCOc1nc2cc(Cl)sc2nc1NC(=O)N1CCN(c2cc(F)cc(F)c2)CC1 [Example 6, N-(6-chloro-2-ethoxythieno[3,2-b]pyrazin-3-yl)-4-(3,5-difluorophenyl)piperazin-1-carboxamide] | < 2.5 | 1.21 | < 2.5 | 1.98 | < 2.5 | 2.1 | 1.13 | < 2.5 | < 2.5 |
| COc1cc(OC)cc(N2CCN(C(=O)Nc3nc4sc(Cl)cc4nc3OC(C)C)CC2)c1 [Example 7, N-(6-chloro-2-isopropoxythieno[3,2-b]pyrazin-3-yl)-4-(3,5-dimethoxyphenyl)piperazin-1-carboxamide] | < 2.5 | < 2.5 | < 2.5 | < 2.5 | < 2.5 | < 2.5 | < 2.5 | < 2.5 | < 2.5 |
| Cc1cc(C)cc(N2CCN(C(=O)Nc3nc4sc(Cl)cc4nc3OC(C)C)CC2)c1 [Example 8, N-(6-chloro-2-isopropoxythieno[3,2-b]pyrazin-3-yl)-4-(3,5-dimethylphenyl)piperazin-1-carboxamide] | < 2.5 | < 2.5 | < 2.5 | < 2.5 | < 2.5 | < 2.5 | < 2.5 | < 2.5 | < 2.5 |
| CC(C)Oc1nc2cc(Cl)sc2nc1NC(=O)N1CCN(c2cc(F)cc(F)c2)CC1 [Example 9, N-(6-chloro-2-isopropoxythieno[3,2-b]pyrazin-3-yl)-4-(3,5-difluorophenyl)piperazin-1-carboxamide] | < 2.5 | < 2.5 | < 2.5 | < 2.5 | < 2.5 | < 2.5 | < 2.5 | < 2.5 | < 2.5 |
| CCOc1nc2ccsc2nc1NC(=O)N1CCN(c2cc(OC)cc(OC)c2)CC1 [Example 13, 4-(3,5-dimethoxyphenyl)-N-(2-ethoxythieno[3,2-b]pyrazin-3-yl)piperazin-1-carboxamide] | < 2.5 | 0.26 | < 2.5 | 0.65 | < 2.5 | 0.72 | 0.16 | < 2.5 | < 2.5 |
| CCOc1nc2ccsc2nc1NC(=O)N1CCN(c2cc(C)cc(C)c2)CC1 [Example 14, 4-(3,5-dimethylphenyl)-N-(2-ethoxythieno[3,2-b]pyrazin-3-yl)piperazin-1-carboxamide] | < 2.5 | 0.57 | < 2.5 | < 2.5 | < 2.5 | 0.65 | 0.34 | < 2.5 | < 2.5 |
| COc1cc(OC)cc(N2CCN(C(=O)Nc3nc4sccc4nc3OC(C)C)CC2)c1 [Example 16, 4-(3,5-dimethoxyphenyl)-N-(2-isopropoxythieno[3,2-b]pyrazin-3-yl)piperazin-1-carboxamide] | < 2.5 | < 2.5 | < 2.5 | < 2.5 | < 2.5 | < 2.5 | 2.12 | < 2.5 | < 2.5 |

Second part, led by results:

| IC50 (A549) [µM] | IC50 [1] [µM] | IC50 (SK-OV-3) [µM] | IC50 [2] [µM] | IC50 (HT29) [µM] | IC50 [3] [µM] | IC50 [4] [µM] | Structure (SMILES) | IC50 (HEK293) [µM] | IC50 (HUVEC) [µM] |
| --- | --- | --- | --- | --- | --- | --- | --- | --- | --- |
| 2.11 | 0.06 | 0.85 | 0.56 | 0.53 | 0.71 | 0.04 | COc1nc2cc(Cl)sc2nc1NC(=O)N1CCN(c2cc(F)cc(F)c2)CC1 [Example 3, N-(6-chloro-2-methoxythieno[3,2-b]pyrazin-3-yl)-4-(3,5-difluorophenyl)piperazin-1-carboxamide] | 0.87 | 0.54 |
| 1.14 | 0.03 | 0.23 | 0.38 | 0.27 | 0.18 | 0.02 | COc1cc(OC)cc(N2CCN(C(=O)Nc3nc4sccc4nc3OC)CC2)c1 [Example 10, 4-(3,5-dimethoxyphenyl)-N-(2-methoxythieno[3,2-b]pyrazin-3-yl)piperazin-1-carboxamide] | 0.56 | 0.06 |
| 1.31 | 0.07 | 0.27 | 0.24 | 0.31 | 0.41 | 0.07 | COc1nc2ccsc2nc1NC(=O)N1CCN(c2cc(C)cc(C)c2)CC1 [Example 11, 4-(3,5-dimethylphenyl)-N-(2-methoxythieno[3,2-b]pyrazin-3-yl)piperazin-1-carboxamide] | 0.65 | 0.07 |
| 1.28 | 0.04 | 0.29 | 0.24 | 0.3 | 0.33 | 0.05 | COc1nc2ccsc2nc1NC(=O)N1CCN(c2cc(F)cc(F)c2)CC1 [Example 12, 4-(3,5-difluorophenyl)-N-(2-methoxythieno[3,2-b]pyrazin-3-yl)piperazin-1-carboxamide] | 0.55 | 0.07 |
| < 2.5 | 0.25 | < 2.5 | 1.12 | < 2.5 | 0.78 | 0.25 | CCOc1nc2ccsc2nc1NC(=O)N1CCN(c2cc(F)cc(F)c2)CC1 [Example 15, 4-(3,5-difluorophenyl)-N-(2-ethoxythieno[3,2-b]pyrazin-3-yl)piperazin-1-carboxamide] | < 2.5 | < 2.5 |
